Source: PubChem BioAssay AID2060511 (Molecular Pharmacology Branch, DTP, NCI, 2025)

Test system: 422866-222-R5-J1-PDC spheroids with HUVEC/MSC, viability
Assay: Anticancer human tumor 422866-222-R5-J1-PDC patient-derived pancreatic adenocarcinoma cell line growth inhibition [GQUAD]
Conditions: for IC50: curve of first compound; for viability, T/C: stronger effect = lower value; active means viability on the fitted dose curve at most 10% of control; inactive means the rest
How it was run: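 Viability of tumor cells grown as complex spheroids with endothelial and stromal cells, exposed to drug combinations. Top concentration at or near clinical Cmax (else 10 microM), diluted in half-log increments.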

[1] = second compound 0.0316 µM, first compound 0.0316 µM
[2] = second compound 0.0316 µM, first compound 0.1 µM
[3] = second compound 0.0316 µM, first compound 0.316 µM
[4] = second compound 0.0316 µM, first compound 1 µM
[5] = second compound 0.0316 µM, first compound 3.16 µM
[6] = second compound 0.0316 µM, first compound 10 µM
[7] = second compound 0.1 µM, first compound 0.0316 µM
[8] = second compound 0.1 µM, first compound 0.1 µM
[9] = second compound 0.1 µM, first compound 0.316 µM
[10] = second compound 0.1 µM, first compound 1 µM
[11] = second compound 0.1 µM, first compound 3.16 µM
[12] = second compound 0.1 µM, first compound 10 µM
[13] = second compound 0.316 µM, first compound 0.0316 µM
[14] = second compound 0.316 µM, first compound 0.1 µM
[15] = second compound 0.316 µM, first compound 0.316 µM
[16] = second compound 0.316 µM, first compound 1 µM
[17] = second compound 0.316 µM, first compound 3.16 µM
[18] = second compound 0.316 µM, first compound 10 µM
[19] = second compound 1 µM, first compound 0.0316 µM
[20] = second compound 1 µM, first compound 0.1 µM
[21] = second compound 1 µM, first compound 0.316 µM
[22] = second compound 1 µM, first compound 1 µM
[23] = second compound 1 µM, first compound 3.16 µM
[24] = second compound 1 µM, first compound 10 µM
[25] = second compound 3.16 µM, first compound 0.0316 µM
[26] = second compound 3.16 µM, first compound 0.1 µM
[27] = second compound 3.16 µM, first compound 0.316 µM
[28] = second compound 3.16 µM, first compound 1 µM
[29] = second compound 3.16 µM, first compound 3.16 µM
[30] = second compound 3.16 µM, first compound 10 µM
[31] = second compound 10 µM, first compound 0.0316 µM
[32] = second compound 10 µM, first compound 0.1 µM
[33] = second compound 10 µM, first compound 0.316 µM
[34] = second compound 10 µM, first compound 1 µM
[35] = second compound 10 µM, first compound 3.16 µM
[36] = second compound 10 µM, first compound 10 µM
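Further: spheroids exposed to compounds for seven days before reading.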
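Wherever viability, T/C is given: percent viability relative to DMSO vehicle control taken as 100%.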

Cc1cccc(N(C)C(=O)C2C(O)CCN2c2nc(C)cc(C(F)(F)F)c2C#N)c1 (stereo not drawn) + Cc1cnc(CNC(=O)c2c(=O)c3ccc(N4CCCN(C)CC4)nc3n3c2sc2ccccc23)cn1
> 10 µM: IC50 (second compound 0.0316 µM) | IC50 (second compound 0.1 µM) | IC50 (second compound 0.316 µM) | IC50 (second compound 1 µM) | IC50 (second compound 3.16 µM) | IC50 (second compound 10 µM)
inactive: viability, T/C [1] 95% | viability, T/C [2] 82.2% | viability, T/C [3] 83.9% | viability, T/C [4] 92.8% | viability, T/C [5] 90.5% | viability, T/C [6] 88.7% | viability, T/C [7] 95.9% | viability, T/C [8] 86.3% | viability, T/C [9] 86.8% | viability, T/C [10] 83.7% | viability, T/C [11] 102% | viability, T/C [12] 90.9% | viability, T/C [13] 85.8% | viability, T/C [14] 90.5% | viability, T/C [15] 98.9% | viability, T/C [16] 83.7% | viability, T/C [17] 85.3% | viability, T/C [18] 85.5% | viability, T/C [19] 82% | viability, T/C [20] 85.8% | viability, T/C [21] 86.1% | viability, T/C [22] 79.7% | viability, T/C [23] 94.1% | viability, T/C [24] 91.6% | viability, T/C [25] 73.7% | viability, T/C [26] 80% | viability, T/C [27] 86.1% | viability, T/C [28] 79.7% | viability, T/C [29] 96.5% | viability, T/C [30] 78.8% | viability, T/C [31] 75.3% | viability, T/C [32] 75.6% | viability, T/C [33] 75% | viability, T/C [34] 86.5% | viability, T/C [35] 89% | viability, T/C [36] 77.7%

CC(=O)O[C@H]1C(=O)[C@@]2(C)[C@H]([C@H](OC(=O)c3ccccc3)[C@]3(O)C[C@H](OC(=O)[C@H](O)[C@@H](NC(=O)c4ccccc4)c4ccccc4)C(C)=C1C3(C)C)[C@]1(OC(C)=O)CO[C@@H]1C[C@@H]2O + CN(C)c1ccc(Nc2c3ccc(NC(=O)CCN4CCCC4)cc3nc3cc(NC(=O)CCN4CCCC4)ccc23)cc1
inactive: viability, T/C [1] 78.2% | viability, T/C [2] 72.8% | viability, T/C [3] 63.9% | viability, T/C [4] 66.5% | viability, T/C [5] 75.6% | viability, T/C [6] 86% | viability, T/C [7] 88% | viability, T/C [8] 60.7% | viability, T/C [9] 65.1% | viability, T/C [10] 67.6% | viability, T/C [11] 74.3% | viability, T/C [12] 79.7% | viability, T/C [13] 87.6% | viability, T/C [14] 63.1% | viability, T/C [15] 51.3% | viability, T/C [16] 72.4% | viability, T/C [17] 77.2% | viability, T/C [18] 81.4% | viability, T/C [19] 59.5% | viability, T/C [20] 60.5% | viability, T/C [21] 74.6% | viability, T/C [22] 65.9% | viability, T/C [23] 71% | viability, T/C [24] 85.6% | viability, T/C [25] 62.9% | viability, T/C [26] 68.9% | viability, T/C [27] 68.1% | viability, T/C [28] 65.2% | viability, T/C [29] 76.3% | viability, T/C [30] 87.6% | viability, T/C [31] 63.8% | viability, T/C [32] 67.1% | viability, T/C [33] 76.5% | viability, T/C [34] 79.9% | viability, T/C [35] 80.3% | viability, T/C [36] 92.4%
> 10 µM: IC50 (second compound 0.0316 µM) | IC50 (second compound 0.1 µM) | IC50 (second compound 0.316 µM) | IC50 (second compound 1 µM) | IC50 (second compound 3.16 µM) | IC50 (second compound 10 µM)

CC1COCCN1c1cc(C2(S(C)(=N)=O)CC2)nc(-c2ccnc3[nH]ccc23)n1 (stereo not drawn) + CN(C)c1ccc(Nc2c3ccc(NC(=O)CCN4CCCC4)cc3nc3cc(NC(=O)CCN4CCCC4)ccc23)cc1
7.8 µM: IC50 (second compound 0.316 µM)
3.58 µM: IC50 (second compound 3.16 µM)
inactive: viability, T/C [1] 97.6% | viability, T/C [2] 99.8% | viability, T/C [3] 97.3% | viability, T/C [4] 88.5% | viability, T/C [5] 51% | viability, T/C [6] 41.1% | viability, T/C [7] 102% | viability, T/C [8] 98.3% | viability, T/C [9] 102% | viability, T/C [10] 78.9% | viability, T/C [11] 44.6% | viability, T/C [12] 37.9% | viability, T/C [13] 92.2% | viability, T/C [14] 86.2% | viability, T/C [15] 88.4% | viability, T/C [16] 81% | viability, T/C [17] 60.3% | viability, T/C [18] 47.1% | viability, T/C [19] 73.7% | viability, T/C [20] 76.6% | viability, T/C [21] 100% | viability, T/C [22] 72.7% | viability, T/C [23] 54.2% | viability, T/C [24] 31.9% | viability, T/C [25] 84.5% | viability, T/C [26] 76.5% | viability, T/C [27] 86% | viability, T/C [28] 72% | viability, T/C [29] 51.4% | viability, T/C [30] 43.5% | viability, T/C [31] 79.5% | viability, T/C [32] 77% | viability, T/C [33] 93% | viability, T/C [34] 73.6% | viability, T/C [35] 61.9% | viability, T/C [36] 41.2%
2.59 µM: IC50 (second compound 0.1 µM)
6.04 µM: IC50 (second compound 10 µM)
3.57 µM: IC50 (second compound 0.0316 µM)
3.79 µM: IC50 (second compound 1 µM)

COc1cccc2c1C(=O)c1c(O)c3c(c(O)c1C2=O)CC(O)(C(=O)CO)CC3OC1CC(N)C(O)C(C)O1 (stereo not drawn) + CN(C)c1ccc(Nc2c3ccc(NC(=O)CCN4CCCC4)cc3nc3cc(NC(=O)CCN4CCCC4)ccc23)cc1
inactive: viability, T/C [1] 95.2% | viability, T/C [2] 66.8% | viability, T/C [3] 64.3% | viability, T/C [4] 42.9% | viability, T/C [5] 32% | viability, T/C [6] 32.3% | viability, T/C [7] 103% | viability, T/C [8] 73% | viability, T/C [9] 56.8% | viability, T/C [10] 48.8% | viability, T/C [11] 33.9% | viability, T/C [12] 37.9% | viability, T/C [13] 89.5% | viability, T/C [14] 66.3% | viability, T/C [15] 65.7% | viability, T/C [16] 48.3% | viability, T/C [17] 37.8% | viability, T/C [18] 37.5% | viability, T/C [19] 72.2% | viability, T/C [20] 59.5% | viability, T/C [21] 55.5% | viability, T/C [22] 51% | viability, T/C [23] 40.4% | viability, T/C [24] 33% | viability, T/C [25] 74.3% | viability, T/C [26] 68.5% | viability, T/C [27] 56% | viability, T/C [28] 44.8% | viability, T/C [29] 35.1% | viability, T/C [30] 36.5% | viability, T/C [31] 93% | viability, T/C [32] 69.4% | viability, T/C [33] 65.9% | viability, T/C [34] 48.1% | viability, T/C [35] 41.1% | viability, T/C [36] 33%
0.76 µM: IC50 (second compound 1 µM)
0.596 µM: IC50 (second compound 0.0316 µM)
1 µM: IC50 (second compound 10 µM)
0.613 µM: IC50 (second compound 0.1 µM)
0.9 µM: IC50 (second compound 0.316 µM)
0.562 µM: IC50 (second compound 3.16 µM)
